Measured values taken from patent US11136320B2, “Fused ring derivative used as FGFR4 inhibitor” (JACOBIO PHARMACEUTICALS CO., LTD., priority 2019, dated 2021).

Tests used:
PK analysis of rats = type: in vivo; settings: SD rats, p.o. (10 mg/kg); for AUC(0-t) / Cmax: rat, plasma, po; for AUC(0-t): read-out: Curve area AUC0-24 h; for Cmax: read-out: Drug concentration in blood Cmax
Description: In the present invention, the pharmacokinetics experiment of the compounds in rats was performed using the SD rats (Vitolihua).
(1) Mode of administration: single gavage administration and intravenous injection administration.
(2) Dosage: 10 mg/kg in the gavage administration, 3 mg/kg in the intravenous injection administration.
Gavage administration: before administration, 15 min, 30 min, 1 h, 2 h, 4 h, 6 h, 8 h, 24 h; […]
(4) Sample processing: 200 μL of orbital blood was collected at each sampling time point. After anticoagulation with heparin, the blood was centrifuged at 5500 rpm for 10 min, and 60 μL of the supernatant was taken and put into the refrigerator at −80° C. for waiting for testing.
Samples obtained after administration of Compound 1 were tested using 4000 LC-MS/MS analyzer, wherein, the chromatographic separation conditions for testing were:
Samples obtained after administration of Compound 7 were tested using 4000 LC-MS/MS analyzer, wherein, the chromatographic separation conditions for testing were:
Samples obtained after administration of Compound 16 were tested using 4000 LC-MS/MS analyzer, wherein, the chromatographic separation conditions for testing were: […]

FGFR4 kinase [1] = target: T1, FGFR4 kinase (Homo sapiens (Human), UniProt P22455)
T1 sequence (P22455 22-802): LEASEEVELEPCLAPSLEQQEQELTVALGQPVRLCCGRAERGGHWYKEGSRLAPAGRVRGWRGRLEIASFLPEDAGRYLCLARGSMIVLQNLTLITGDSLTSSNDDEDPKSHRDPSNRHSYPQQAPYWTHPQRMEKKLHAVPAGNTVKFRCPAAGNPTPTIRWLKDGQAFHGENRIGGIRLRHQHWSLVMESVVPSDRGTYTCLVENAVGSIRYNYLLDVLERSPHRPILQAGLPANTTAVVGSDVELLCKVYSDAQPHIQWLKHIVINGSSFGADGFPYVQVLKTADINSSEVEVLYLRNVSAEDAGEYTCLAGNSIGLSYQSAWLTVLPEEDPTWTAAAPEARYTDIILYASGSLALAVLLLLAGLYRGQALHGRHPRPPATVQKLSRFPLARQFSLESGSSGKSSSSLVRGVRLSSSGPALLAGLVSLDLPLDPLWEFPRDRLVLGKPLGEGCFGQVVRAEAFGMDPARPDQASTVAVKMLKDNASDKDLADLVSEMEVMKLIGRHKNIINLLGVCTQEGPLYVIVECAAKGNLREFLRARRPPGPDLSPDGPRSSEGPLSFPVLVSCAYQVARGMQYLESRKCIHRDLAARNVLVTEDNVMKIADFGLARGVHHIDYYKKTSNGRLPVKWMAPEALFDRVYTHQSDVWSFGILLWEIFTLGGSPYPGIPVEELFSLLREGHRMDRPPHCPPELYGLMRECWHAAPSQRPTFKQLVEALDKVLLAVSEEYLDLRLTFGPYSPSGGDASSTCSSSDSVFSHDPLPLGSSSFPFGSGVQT

FGFR4 kinase [2] = target: T1, FGFR4 kinase; experiment: biochemical
[3] = test system: Hepatoma cell Hep3B (high expression of FGFR4 and FGF19); experiment: Hepatoma cell proliferation inhibition experiment (MTS method); type: cell-based; settings: for IC50: Homo sapiens, Hep3B, 120 h incubation, read-out: Hep3B(IC50 μM)
Text: In this experiment, the MTS method was used to test the inhibitory effect of the compounds on the proliferation of Hepatoma cell Hep3B (high expression of FGFR4 and FGF19), and the half inhibitory concentration IC50 of the compounds to Hep3B was obtained. The Hep3B cell line was purchased from ATCC, and the complete culture medium of the Hep3B cell line was MEM+10% FBS+1% PS. MEM cell culture medium, fetal bovine serum, and trypsin were purchased from Gibco, cell culture flasks were purchased from Greiner, and disposable Cell Counting Plate and Taittinger Blue Solution were purchased from Bio-Rad.
(1) 100 μl Hepatoma cell Hep3B suspension was seeded in a 96-well cell culture plate, and the density of each well was 2.0×10^4 cells/ml.
(3) A mixture of MTS (3-(4,5-dimethylthiazol-2-yl)-5-(3-carboxymethoxyphenyl)-2-(4-sulfophenyl)-2H-tetrazolium)/PMS (phenazine methosulfate) was added into each well for coloration, and MTS/PMS in the mixture was at a ratio of 20:1 (ml:ml). 30 μl of the mixture was added into each well of the culture plate above mentioned in step (2), then the culture plate was incubated for 3 h in the incubator.
(5) The inhibition rate was calculated by the […];
(6) According to the inhibition rate of the different concentrations, the IC50 values of the compounds were obtained by curve fitting.

Row | SMILES | exposure amount AUC0-24 h and maximum drug concentration in blood Cmax compared with the reference compound (PK analysis of rats) | AUC(0-t) (PK analysis of rats) | Cmax (PK analysis of rats) | inhibitory effect on FGFR4 compared with the reference compound (FGFR4 kinase [1]) | IC50 (FGFR4 kinase [2]) | inhibitory effect on Hepatoma cell Hep3B compared with the reference compound [3] | IC50 [3]
1 | CN1CCN(Cc2cc3c(nc2C=O)N(C(=O)Nc2cc(NC4CCSC4)c(C#N)cn2)CCC3)C(=O)C1 (stereo not drawn) [Compound 5, N-(5-cyano-4-((tetrahydrothiophene-3-yl)amino)pyridin-2-yl)-7-formyl-6-((4-methyl-2-oxopiperazin-1-yl)methyl)-3,4-dihydro-1,8-naphthyridine-1 (2H)-carboxamide] | significantly higher than the reference compound | 6730 ng·h/mL | 1400 ng/mL | better inhibitory effect on FGFR4 than the reference compound | 2 nM |  | 
2 | CSC[C@@H](C)Nc1cc(NC(=O)N2CCCc3cc(CN4CCCC4=O)c(C=O)nc32)ncc1C#N [Compound 7, (R)—N-(5-cyano-4-((1-(methylthio)propan-2-yl)amino)pyridin-2-yl)-7-formyl-6-((2-oxopyrrolidine-1-yl)methyl)-3,4-dihydro-1,8-naphthyridine-1 (2H)-carboxamide] | significantly higher than the reference compound | 2850 ng·h/mL | 736 ng/mL | better inhibitory effect on FGFR4 than the reference compound | 1.5 nM | better inhibitory effect | 0.011 µM
3 | CN1CCN(Cc2cc3c(nc2C=O)N(C(=O)Nc2cc(NCc4nccs4)c(C#N)cn2)CCC3)C(=O)C1 [Compound 56, N-(5-cyano-4-((thiazol-2-yl-methyl)amino)pyridin-2-yl)-7-formyl-6-((4-methyl-2-oxopiperazin-1-yl)methyl)-3,4-dihydro-1,8-naphthyridine-1(2H)-carboxamide] | significantly higher than the reference compound | 2010 ng·h/mL | 548 ng/mL | better inhibitory effect on FGFR4 than the reference compound | 1.6 nM | better inhibitory effect | 0.013 µM
4 | CN1CCN(Cc2cc3c(nc2C=O)N(C(=O)Nc2cc(NCCSC(F)(F)F)c(C#N)cn2)CCC3)C(=O)C1 [Compound 62, N-(5-cyano-4-((2-((trifluoromethyl)thio)ethyl)amino)pyridin-2-yl)-7-formyl-6-((4-methyl-2-oxopiperazin-1-yl)methyl)-3,4-dihydro-1,8-naphthyridine-1(2H)-carboxamide] |  |  |  | better inhibitory effect on FGFR4 than the reference compound | 1.7 nM |  | 0.054 µM
5 | CSCCCNc1cc(NC(=O)N2CCCc3cc(CN4CCN(C)CC4=O)c(C=O)nc32)ncc1C#N [Compound 64, N-(5-cyano-4-((3-(methylthio)propyl)amino)pyridin-2-yl)-7-formyl-6-((4-methyl-2-oxopiperazin-1-yl)methyl)-3,4-dihydro-1,8-naphthyridine-1(2H)-carboxamide] |  |  |  | better inhibitory effect on FGFR4 than the reference compound | 1.6 nM | better inhibitory effect | 0.018 µM
6 | C[C@H](C[S+](C)[O-])Nc1cc(NC(=O)N2CCCc3cc(CN4CCN(C)CC4=O)c(C=O)nc32)ncc1C#N (stereo partly drawn) [Compound 69, N-(5-cyano-4-(((2R)-1-(methylsulfinyl)propan-2-yl)amino)pyridin-2-yl)-7-formyl-6-((4-methyl-2-oxopiperazin-1-yl)methyl)-3,4-dihydro-1,8-naphthyridine-1(2H)-carboxamide] |  |  |  | better inhibitory effect on FGFR4 than the reference compound | 2.1 nM |  | 0.067 µM
7 | CN1CCN(Cc2cc3c(nc2C=O)N(C(=O)Nc2cc(NCCS(C)(=O)=O)c(C#N)cn2)CCC3)C(=O)C1.Cl [Compound 72, N-(5-cyano-4-((2-(methyl-sulfonyl)ethyl)amino)pyridin-2-yl)-7-formyl-6-((4-methyl-2-oxopiperazin-1-yl)methyl)-3,4-dihydro-1,8-naphthyridine-1(2H)-carboxamide hydrochloride] |  |  |  | better inhibitory effect on FGFR4 than the reference compound | 2 nM |  | 0.282 µM
8 | CSCCNc1cc(NC(=O)N2CCCc3cc(CN(C)C(=O)C4CCOCC4)c(C=O)nc32)ncc1C#N.Cl [Compound 73, N-(5-cyano-4-((2-(methyhthio)ethyl)amino)pyridin-2-yl)-7-formyl-6-((N-methyltetrahydro-2H-pyran-4-carboxamido)methyl)-3,4-dihydro-1,8-naphthyridine-1(2H)-carboxamide hydrochloride] |  |  |  | better inhibitory effect on FGFR4 than the reference compound | 2.3 nM |  | 0.039 µM
9 | CSCCNc1cc(NC(=O)N2CCCc3cc(CN(C)C(=O)[C@@H]4CCCO4)c(C=O)nc32)ncc1C#N.Cl [Compound 75, (S)-N-(5-cyano-4-((2-(methylthio)ethyl)amino)pyridin-2-yl)-7-formyl-6-((N-methyltetrahydrofuran-2-carboxamido)methyl)-3,4-dihydro-1,8-naphthyridine-1(2H)-carboxamide hydrochloride] |  |  |  | better inhibitory effect on FGFR4 than the reference compound | 1.8 nM |  | 0.028 µM
10 | CSCCNc1cc(NC(=O)N2CCCc3cc(CN(C)C(=O)C4CCOC4)c(C=O)nc32)ncc1C#N.Cl (stereo not drawn) [Compound 76, N-(5-cyano-4-((2-(methylthio)ethyl)amino)pyridin-2-yl)-7-formyl-6-((N-methyltetrahydrofuran-3-carboxamido)methyl)-3,4-dihydro-1,8-naphthyridine-1(2H)-carboxamide hydrochloride] |  |  |  | better inhibitory effect on FGFR4 than the reference compound | 2.1 nM | better inhibitory effect | 0.006 µM
11 | C[C@H](CS(C)(=O)=O)Nc1cc(NC(=O)N2CCCc3cc(CN4CCN(C)CC4=O)c(C=O)nc32)ncc1C#N [Compound 83, N-(5-cyano-4-(((2R)-1-(methyl-sulfonyl)propan-2-yl)amino)pyridin-2-yl)-7-formyl-6-((4-methyl-2-oxopiperazin-1-yl)methyl)-3,4-dihydro-1,8-naphthyridine-1(2H)-carboxamide] |  |  |  | better inhibitory effect on FGFR4 than the reference compound | 2.1 nM |  | 0.068 µM
